Series [1] deals with LPS-induced TNF-α. In words: In vitro influence of compound on LPS-induced TNF-α in blood (ELISA). The series is classed as cell-based, Sprague Dawley rats. Conditions: rat blood, compound 100 uM, 5 h. The method, then:
Experimental objective: to detect the influence of compound on LPS-induced TNF-α in blood of […] in vitro, and to evaluate inhibiting effects of the compound on LPS-induced TNF-α in blood of […].
Sprague Dawley rats (male, 210-260 g, 8-10 weeks old, Shanghai SLAC)
Rat TNF-alpha Quantikine ELISA Kit (R&D, #SRTA00)
The solution of compound to-be-detected at a concentration of 1 mM was prepared, and 40 μL (final concentration of the compound: 100 uM) was respectively added to a 48-well cell culture plate. After rats were anesthetized with isoflurane, blood samples were collected from their hearts (heparin anticoagulation). The blood was added to the to-be-detected compound present in the 48-well plate with 320 μL/well. The 48-well plate was incubated in a cell incubator for 30 min. Then 40 μL of LPS solution (100 ug/ml) was added, and fully mixed. The plate was further incubated in the incubator. 5 h later, the 48-well plate was taken out. The blood samples were transferred to 1.5 ml centrifuge tubes, and centrifuged in a centrifuge (4,500 rpm, 4° C., 5 minutes). The supernatant was separated to obtain blood plasma, which was subpackaged, quickly frozen, and kept in a refrigerator at −80° C. On the next day, the TNF-α levels in blood plasma samples were detected using an R&D ELISA kit.

Series [2] addresses T1, recombinant full-length human PDE2A protein (Homo sapiens, UniProt O00408).
T1 construct: A recombinant full-length human PDE2A protein; GST (N); made in house; host or cells: Sf9 insect cells (baculovirus)
Kind of series: In vitro evaluation on inhibition activities of PDE2 phosphodiesterase (fluorescence polarization, Transcreener AMP2/GMP2). The note with it: substrate 1 μM cGMP. The format is biochemical. Here is the method: Experimental objective: the concentrations of AMP/GMP generated in the reaction system was detected by detecting a substituted AlexaFluor 633 fluorochrome on AMP/GMP antibodies through fluorescence polarization analysis, and IC50 of PDE2 phosphodiesterase against compound to be detected was calculated.
Buffer solution for determination: 10 mM Tris-HCl, pH 7.5, 5 mM MgCl2, 0.01% Brij 35, 1 mM DTT, and 1% DMSO.
Enzyme: A recombinant full-length human PDE2A protein was expressed by baculovirus in Sf9 insect cells using an N-terminal GST tag
Transcreener® AMP^2/GMP^2 antibody, AMP2/GMP2 AlexaFluor 633 fluorochrome
An enzyme solution was prepared from a freshly prepared buffer solution, and then added to a reaction cavity, a DMSO solution of compound to-be-detected was added through an Echo550 contactless nanoliter pipetting system, and then the resulting solution was preincubated for 10 min at room temperature. A substrate (1 μM cGMP) was added to initiate reaction, which was kept at room temperature for 1 h. […] Fluorescence polarization was detected using Ex/Em 620/688.
Fluorescence polarization intensity was converted to nM concentration through AMP/GMP standard curves, then relative enzymatic activity inhibition was calculated compared with DMSO blank control, and IC50 and curve thereof was calculated using Prism software package (GraphPad Software, San Diego Calif., USA).
For orientation: Polarisation of emitted light reports the rotation of a fluorescent probe.

A short description of series [3]: Evaluation on pharmacokinetics of compound in SD rats. The format is in vivo. The note with it: male, Sprague-Dawley, rat, plasma; for clearance / AUC / half-life: single intravenous injection and oral administration; for clearance: read-out: Clearance rate; for AUC: read-out: Concentration integral AUC; for half-life: read-out: Half life T1/2 (converted). Here is the method: Experimental objective: To test the pharmacokinetics of a compound in SD rats
Experimental materials: Sprague Dawley rats (male, 200-300 g, 7-9 weeks old, Shanghai SLAC)
Pharmacokinetic characteristics of rodents after intravenous injection and oral administration of the compound were tested using a standard scheme. In the experiment, a candidate compound was prepared into a clear solution, which was administrated to rats by single intravenous injection and oral administration. The solvent for intravenous injection and oral administration is water solution or normal saline solution of hydroxypropyl 3 cyclodextrin at a certain proportion. A whole blood sample was collected within 24 hours, and 3000 g of the sample was centrifuged for 15 minutes. The supernatant was separated to obtain blood plasma samples, to which 4 times volume of an acetonitrile solution containing an internal standard substance was added to precipitate protein. After centrifuging, the supernatant was collected, equivalent volume of water was added, the resulting solution was recentrifuged, and the supernatant was collected for sample injection. The blood concentration was quantitatively analyzed by LC-MS/MS, and the pharmacokinetic parameters were calculated, such as peak concentration, time to peak, clearance rate, half life, area under the curve and bioavailability.

Series [4] can be described thus: Solubility of crystal form A in different solvents. Conditions: thermodynamic from solid, room temperature. The format is physicochemical. The method, then:
About 2 mg of crystal form A was weighed put in a 1.5 mL liquid phase vial, to which the following solvents were respectively added by pipettes by stages to dissolve the crystal form A while manually vibrating.

The nature of series [5]: Stability test of crystal form A solid (accelerated, 40° C./75% humidity, open). The series is classed as physicochemical. Here is the method:
A crystal form A was put in an open container at a constant temperature and humidity for accelerated test respectively at 40° C./75% humidity (open). Samples were collected in 1st, 2nd and 3rd months and tested, and the test results were compared with the initial test results on 0th day.

The mark [6] stands for this setting: 40° C./75% humidity (open), 1 month.
The mark [7] stands for this setting: 40° C./75% humidity (open), 2 months.
[8] abbreviates: 40° C./75% humidity (open), 3 months.

What is called IC50 is the midpoint of a concentration-inhibition curve. The bioavailability is dose-corrected exposure relative to a reference, in per cent. A word on the solubility: it is the concentration that dissolves in the medium under given conditions.

In brackets after ≈: the same amount, converted by molar mass.

T1 sequence (O00408 whole entry): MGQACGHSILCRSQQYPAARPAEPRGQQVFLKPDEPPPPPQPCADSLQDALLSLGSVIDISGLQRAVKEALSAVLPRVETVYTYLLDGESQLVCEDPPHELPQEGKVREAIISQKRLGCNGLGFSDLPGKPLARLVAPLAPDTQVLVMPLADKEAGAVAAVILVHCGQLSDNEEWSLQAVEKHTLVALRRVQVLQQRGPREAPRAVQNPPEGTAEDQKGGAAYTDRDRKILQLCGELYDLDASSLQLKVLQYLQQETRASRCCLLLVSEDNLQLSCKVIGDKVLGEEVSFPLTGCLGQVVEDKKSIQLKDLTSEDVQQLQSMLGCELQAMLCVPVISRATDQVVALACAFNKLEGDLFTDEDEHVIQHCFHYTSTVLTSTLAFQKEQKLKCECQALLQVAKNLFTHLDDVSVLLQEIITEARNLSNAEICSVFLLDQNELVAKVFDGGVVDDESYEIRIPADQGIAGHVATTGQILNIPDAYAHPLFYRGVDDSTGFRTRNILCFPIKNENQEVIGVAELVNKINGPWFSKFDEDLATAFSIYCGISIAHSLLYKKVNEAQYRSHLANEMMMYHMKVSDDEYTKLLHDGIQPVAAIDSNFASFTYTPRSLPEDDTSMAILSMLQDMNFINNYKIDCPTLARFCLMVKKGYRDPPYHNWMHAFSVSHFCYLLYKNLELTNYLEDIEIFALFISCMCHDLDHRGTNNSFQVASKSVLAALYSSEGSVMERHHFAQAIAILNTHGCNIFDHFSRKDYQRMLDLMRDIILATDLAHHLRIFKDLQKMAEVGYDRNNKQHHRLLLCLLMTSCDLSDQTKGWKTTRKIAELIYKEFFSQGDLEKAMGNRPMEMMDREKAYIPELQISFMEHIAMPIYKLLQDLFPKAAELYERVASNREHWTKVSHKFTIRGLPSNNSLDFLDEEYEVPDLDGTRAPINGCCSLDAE

Turning to `Cn1c(=O)n(C[C@H]2CC[C@@](C)(O)CC2)c(=O)c2c1ncn2CC1CC1` [Compound (I), 7-(cyclopropylmethyl)-1-(((cis)-4-hydroxy-4-methylcyclohexyl)methyl)-3-methyl-1H-purine-2,6-(3H, 7H)-dione], the “TNF-α Inhibition Ratio” value in series [1] is recorded as “++ (80% ≤ “++” < 100%)”. For the same molecule, the IC50 in series [2] is 1 to 10 µM. Besides, the bioavailability in series [3] (oral administration, read-out: Bioavailability F) came out at 47.9%. Besides, in series [3], the clearance is 54.4 mL/min/kg, the AUC was 4.39 µM·h and the half-life is 47.6 min.

Regarding `Cn1c(=O)n(C[C@H]2CC[C@@](C)(O)CC2)c(=O)c2c1ncn2CC1CC1` [Crystal Form A, 7-(cyclopropylmethyl)-1-(((cis)-4-hydroxy-4-methylcyclohexyl)methyl)-3-methyl-1H-purine-2,6-(3H, 7H)-dione], the solubility in series [4] (aqueous with cosolvent or surfactant or cyclodextrin, Acetone-water (1:2)) is approximately 1 mg/mL (≈ 2.89 mM); in series [4] (aqueous with cosolvent or surfactant or cyclodextrin, Acetonitrile-water (1:1)), approximately 22.2 mg/mL (≈ 64.1 mM); in series [4] (aqueous with cosolvent or surfactant or cyclodextrin, Ethanol-water (1:1)), approximately 16.3 mg/mL (≈ 47.1 mM); in series [4] (aqueous with cosolvent or surfactant or cyclodextrin, Ethanol-water (3:1)), approximately 24.5 mg/mL (≈ 70.7 mM); in series [4] (aqueous with cosolvent or surfactant or cyclodextrin, Isopropanol-water (1:1)) it was approximately 17.3 mg/mL (≈ 49.9 mM); in series [4] (aqueous with cosolvent or surfactant or cyclodextrin, Methanol-water (1:1)), approximately 7.8 mg/mL (≈ 22.5 mM). Besides, the solubility was approximately 19 mg/mL (≈ 54.8 mM) in series [4] (aqueous with cosolvent or surfactant or cyclodextrin, Methanol-water (3:1)); approximately 24.2 mg/mL (≈ 69.9 mM) in series [4] (organic solvent or mixture, 2-methyltetrahydrofuran); approximately 17.2 mg/mL (≈ 49.6 mM) in series [4] (organic solvent or mixture, Acetone); approximately 13 mg/mL (≈ 37.5 mM) in series [4] (organic solvent or mixture, Acetonitrile); approximately 37.2 mg/mL (≈ 107 mM) in series [4] (organic solvent or mixture, Butanone); less than 1 mg/mL in series [4] (organic solvent or mixture, Cyclohexane). The solubility in series [4] (organic solvent or mixture, Dioxane) is more than 57 mg/mL; in series [4] (organic solvent or mixture, Ethanol) it was approximately 11.2 mg/mL (≈ 32.3 mM); in series [4] (organic solvent or mixture, Ethyl acetate), approximately 15.2 mg/mL (≈ 43.9 mM); in series [4] (organic solvent or mixture, Isopropanol) it was approximately 10.1 mg/mL (≈ 29.2 mM); in series [4] (organic solvent or mixture, Isopropyl acetate), approximately 12 mg/mL (≈ 34.6 mM); in series [4] (organic solvent or mixture, Methanol), approximately 28.7 mg/mL (≈ 82.8 mM). Also, the solubility in series [4] (organic solvent or mixture, Methyl isobutyl ketone) was approximately 10.9 mg/mL (≈ 31.5 mM); in series [4] (organic solvent or mixture, Methyl tertiary butyl ether), approximately 2.6 mg/mL (≈ 7.51 mM); in series [4] (organic solvent or mixture, Methylbenzene), less than 1 mg/mL; in series [4] (organic solvent or mixture, Tetrahydrofuran), more than 67 mg/mL; in series [4] (organic solvent or mixture, n-butanol), approximately 20.5 mg/mL (≈ 59.2 mM); in series [4] (organic solvent or mixture, n-heptane), less than 1 mg/mL. The solubility in series [4] (Water) was less than 1 mg/mL. The Appearance result is recorded as “White powder” in series [5] (setting [6]); “White powder” in series [5] (setting [7]); “White powder” in series [5] (setting [8]); “White powder” in series [5] (Initial, 0 month). Moreover, the Content in series [5] (setting [6]) worked out at 101.4%; in series [5] (setting [7]), 98.8%; in series [5] (setting [8]) it was 101.8%; in series [5] (Initial, 0 month), 101.6%. In addition, the “Total Impurities” value in series [5] (setting [6]) was found to be 0.31%; in series [5] (setting [7]), 0.34%; in series [5] (setting [8]) it was 0.32%; in series [5] (Initial, 0 month), 0.33%.

As to `CC(=O)CCCCn1c(=O)c2c(ncn2C)n(C)c1=O` [Pentoxifylline, reference compound], in series [3], the clearance worked out at 74.1 mL/min/kg, the AUC is 6.62 µM·h and the half-life is 11.5 min.

(Values after US10399981B2, “Crystal form A of 7-(cyclopropylmethyl)-1-(((cis )-4-hydroxy-4-methylcyclohexyl)methyl)-3-methyl-1H-purine-2,6-(3H,7H)-dione for treating liver diseases” (GUANGDONG RAYNOVENT BIOTECH CO., LTD., priority 2015, dated 2019).)
